Consider three compounds from patent US10201165B2 (Board of Trustees of Michigan State University, priority 2014, dated 2019).

SMILES strings stand for the structures. Where two headings read alike, the source gives them in different places.

For test [1], the system named is fungi. The test is described as follows: Antifungal activity (test not specified). The following applies: compound identified from leaves of Prunus maackii.
In test [2] the test system is fungi. Conditions: compound tentatively assigned to HPLC-MS peak around 255 g/mol; cited from earlier work.
The next test relates to Cladosporium cucumerinum. In words: TLC bioassay for detection of antimicrobial activity. Conditions: FIG. 3, white areas. Type of test: cell-based. As to the method: A TLC-bioassay of extract from Prunus maackii, P. serotina, and P. mahelab was conducted using three different extraction methods. Periderm tissue was extracted in 80% acetone, in hot water, or in water in an autoclave. Extracts were tested for antimicrobial activity by a thin layer chromatography bioassay on cellulose TLC plates. Samples were separated with, and the plates were developed in, water.
For the TLC bioassay for the detection of antimicrobial activity, 5 μL of the samples (column fractions, suspended in 80% methanol) were applied to Analtech® silica gel (TLC) plates and were developed in a TLC tank (30×20×10 cm) using 100 mL of chloroform:methanol (8.5:1, v/v). Within 24 hours of developing the TLC plates, the plates were evenly sprayed with a dense fungal suspension of C. cucumerinum in ½ strength potato-dextrose broth and then placed in a moist incubation chamber for three days to allow fungal growth.

For the compound `COc1c(O)cc(O)c2c1OC(c1ccccc1)CC2=O` (stereo not drawn) [Dihydrowogonin, 5,7-dihydroxy-8-methoxy-2-phenyl-2,3-dihydrochromen-4-one], the Antifungal activity entry in the test on fungi [1] is reported as “antifungal activity”.
In the case of `O=C1C[C@@H](c2ccccc2)Oc2cc(O)cc(O)c21` [pinocembrin], in the test on fungi [2], the Antifungal activity entry is reported as “antifungal activity”.
Regarding `COc1c(O)cc2oc(-c3ccccc3)c(O)c(=O)c2c1O` [alnusin, 3,5,7-trihydroxy-6-methoxyflavone], the “Fungal inhibition on TLC plate by isolated compounds” value in the test on Cladosporium cucumerinum was “fungal inhibition”.
